# From publication PMC5725665, “Discovery of a Highly Selective Cell‐Active Inhibitor of the Histone Lysine Demethylases KDM2/7” (Angewandte Chemie (International Ed. in English), 2017)
# Columns and labels:
# Assay in all cases: biochemical
# Parameters in all cases: AlphaScreen histone demethylase activity assay
# JARID1C (KDM5C) = JARID1C (KDM5C) (Homo sapiens, UniProt P41229); details: read-out: KDM5C pIC50 (converted)
# JMJD2C (KDM4C) = target: T1, JMJD2C (KDM4C) (Homo sapiens, UniProt Q9H3R0)
# T1 sequence (Q9H3R0 1-1056): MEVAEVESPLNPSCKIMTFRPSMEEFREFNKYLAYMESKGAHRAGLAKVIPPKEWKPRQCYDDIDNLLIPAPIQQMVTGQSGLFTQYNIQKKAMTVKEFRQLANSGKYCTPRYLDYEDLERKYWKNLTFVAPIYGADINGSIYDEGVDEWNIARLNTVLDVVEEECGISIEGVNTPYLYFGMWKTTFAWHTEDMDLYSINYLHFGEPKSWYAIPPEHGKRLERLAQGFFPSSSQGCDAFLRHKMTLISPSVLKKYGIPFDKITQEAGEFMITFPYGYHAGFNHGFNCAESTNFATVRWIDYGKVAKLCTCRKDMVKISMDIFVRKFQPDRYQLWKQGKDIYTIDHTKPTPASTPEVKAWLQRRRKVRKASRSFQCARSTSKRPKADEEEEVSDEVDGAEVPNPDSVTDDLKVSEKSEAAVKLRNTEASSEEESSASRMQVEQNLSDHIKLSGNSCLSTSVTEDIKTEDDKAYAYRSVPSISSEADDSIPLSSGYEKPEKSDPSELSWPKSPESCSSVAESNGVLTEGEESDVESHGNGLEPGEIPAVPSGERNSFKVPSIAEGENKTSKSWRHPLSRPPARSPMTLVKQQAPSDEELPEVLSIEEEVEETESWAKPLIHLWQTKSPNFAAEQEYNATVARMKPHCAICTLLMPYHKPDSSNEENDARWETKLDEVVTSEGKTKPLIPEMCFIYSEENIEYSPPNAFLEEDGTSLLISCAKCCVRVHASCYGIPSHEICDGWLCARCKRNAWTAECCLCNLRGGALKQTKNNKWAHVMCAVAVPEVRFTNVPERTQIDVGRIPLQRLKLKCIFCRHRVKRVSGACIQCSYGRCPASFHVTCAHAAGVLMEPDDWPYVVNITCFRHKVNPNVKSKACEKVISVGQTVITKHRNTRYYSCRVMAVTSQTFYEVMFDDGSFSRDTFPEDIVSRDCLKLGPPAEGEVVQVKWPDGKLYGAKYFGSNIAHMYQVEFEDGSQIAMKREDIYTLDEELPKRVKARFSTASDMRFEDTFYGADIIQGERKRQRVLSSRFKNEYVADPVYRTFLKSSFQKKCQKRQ
# JMJD1A (KDM3A) = target: T2, JMJD1A (KDM3A) (Homo sapiens, UniProt Q9Y4C1)
# T2 sequence (Q9Y4C1 1-1321): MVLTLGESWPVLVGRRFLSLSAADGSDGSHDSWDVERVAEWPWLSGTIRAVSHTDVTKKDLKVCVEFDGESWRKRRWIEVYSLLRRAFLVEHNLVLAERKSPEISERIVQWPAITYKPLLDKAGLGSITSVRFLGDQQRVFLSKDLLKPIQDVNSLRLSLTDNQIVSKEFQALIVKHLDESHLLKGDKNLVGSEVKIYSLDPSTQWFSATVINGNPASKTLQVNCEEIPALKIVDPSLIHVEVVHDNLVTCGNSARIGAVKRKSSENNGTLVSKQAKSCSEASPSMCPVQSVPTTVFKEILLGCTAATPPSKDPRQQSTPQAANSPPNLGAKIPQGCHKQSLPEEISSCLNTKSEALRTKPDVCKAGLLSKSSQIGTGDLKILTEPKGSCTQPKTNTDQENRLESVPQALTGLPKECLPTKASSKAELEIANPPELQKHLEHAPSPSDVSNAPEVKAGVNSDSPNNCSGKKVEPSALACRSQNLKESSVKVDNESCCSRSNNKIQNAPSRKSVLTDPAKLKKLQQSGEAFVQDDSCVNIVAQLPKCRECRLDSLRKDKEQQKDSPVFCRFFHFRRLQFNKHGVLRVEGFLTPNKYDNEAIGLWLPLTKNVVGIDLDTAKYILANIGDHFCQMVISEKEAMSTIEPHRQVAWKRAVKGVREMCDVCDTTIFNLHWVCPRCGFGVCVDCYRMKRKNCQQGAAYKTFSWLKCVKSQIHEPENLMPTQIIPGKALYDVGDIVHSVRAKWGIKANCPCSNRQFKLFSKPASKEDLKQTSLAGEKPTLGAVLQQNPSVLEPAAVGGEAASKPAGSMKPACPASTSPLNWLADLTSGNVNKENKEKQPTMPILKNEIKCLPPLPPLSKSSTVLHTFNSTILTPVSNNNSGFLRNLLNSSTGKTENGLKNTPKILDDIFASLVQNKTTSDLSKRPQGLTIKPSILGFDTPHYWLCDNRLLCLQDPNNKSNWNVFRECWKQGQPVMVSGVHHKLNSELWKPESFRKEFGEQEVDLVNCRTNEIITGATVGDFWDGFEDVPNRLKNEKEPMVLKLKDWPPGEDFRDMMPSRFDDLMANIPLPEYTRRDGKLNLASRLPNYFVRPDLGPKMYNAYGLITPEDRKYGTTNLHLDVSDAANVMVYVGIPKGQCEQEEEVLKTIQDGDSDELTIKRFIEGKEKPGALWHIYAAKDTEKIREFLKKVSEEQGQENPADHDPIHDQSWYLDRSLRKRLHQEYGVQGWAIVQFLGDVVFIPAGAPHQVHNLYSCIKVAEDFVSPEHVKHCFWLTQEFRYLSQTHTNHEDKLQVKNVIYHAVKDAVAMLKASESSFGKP
# JARID1B (KDM5B) = JARID1B (KDM5B) (Homo sapiens, UniProt Q9UGL1); details: read-out: KDM5B pIC50 (converted)
# Chain of JARID1B (KDM5B) (Q9UGL1 whole entry): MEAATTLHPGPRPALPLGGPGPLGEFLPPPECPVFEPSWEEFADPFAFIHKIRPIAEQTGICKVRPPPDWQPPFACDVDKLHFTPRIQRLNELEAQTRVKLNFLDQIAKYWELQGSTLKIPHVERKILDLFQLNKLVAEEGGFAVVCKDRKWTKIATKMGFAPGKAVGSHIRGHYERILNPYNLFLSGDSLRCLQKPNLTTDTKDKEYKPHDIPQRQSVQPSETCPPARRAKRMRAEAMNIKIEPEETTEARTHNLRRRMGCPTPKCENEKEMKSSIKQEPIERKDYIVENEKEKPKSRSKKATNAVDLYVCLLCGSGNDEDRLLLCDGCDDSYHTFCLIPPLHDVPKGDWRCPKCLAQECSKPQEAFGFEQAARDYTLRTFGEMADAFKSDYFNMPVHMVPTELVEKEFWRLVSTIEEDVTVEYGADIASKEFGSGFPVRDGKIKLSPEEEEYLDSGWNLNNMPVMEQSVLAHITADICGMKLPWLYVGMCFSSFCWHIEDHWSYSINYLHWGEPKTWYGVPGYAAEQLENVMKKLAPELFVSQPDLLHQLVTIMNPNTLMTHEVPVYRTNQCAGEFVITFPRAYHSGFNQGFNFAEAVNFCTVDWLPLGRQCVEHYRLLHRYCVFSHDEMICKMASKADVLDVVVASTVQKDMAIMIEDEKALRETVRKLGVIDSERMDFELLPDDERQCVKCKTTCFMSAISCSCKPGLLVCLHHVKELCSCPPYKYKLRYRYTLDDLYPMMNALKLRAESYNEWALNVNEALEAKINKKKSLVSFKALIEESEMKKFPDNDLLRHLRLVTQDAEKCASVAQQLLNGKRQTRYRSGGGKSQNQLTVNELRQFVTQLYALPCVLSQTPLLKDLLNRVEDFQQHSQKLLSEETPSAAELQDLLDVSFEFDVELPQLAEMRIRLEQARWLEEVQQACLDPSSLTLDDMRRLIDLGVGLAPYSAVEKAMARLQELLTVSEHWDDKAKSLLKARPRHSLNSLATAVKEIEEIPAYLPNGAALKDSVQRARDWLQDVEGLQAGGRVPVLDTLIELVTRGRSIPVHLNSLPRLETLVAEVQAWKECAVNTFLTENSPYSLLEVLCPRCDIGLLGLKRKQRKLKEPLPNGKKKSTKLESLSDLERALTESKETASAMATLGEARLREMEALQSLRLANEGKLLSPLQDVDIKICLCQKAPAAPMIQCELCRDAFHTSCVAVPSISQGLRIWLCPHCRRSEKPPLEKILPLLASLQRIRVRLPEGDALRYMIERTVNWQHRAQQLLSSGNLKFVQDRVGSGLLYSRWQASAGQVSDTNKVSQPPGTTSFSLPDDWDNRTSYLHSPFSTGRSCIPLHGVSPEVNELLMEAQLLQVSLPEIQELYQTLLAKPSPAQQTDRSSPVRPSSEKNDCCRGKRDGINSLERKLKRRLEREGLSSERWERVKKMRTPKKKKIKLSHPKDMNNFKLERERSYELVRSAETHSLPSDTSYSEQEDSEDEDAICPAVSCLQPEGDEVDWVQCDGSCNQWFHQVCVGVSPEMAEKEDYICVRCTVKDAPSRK
# Chain of JARID1C (KDM5C) (P41229 whole entry): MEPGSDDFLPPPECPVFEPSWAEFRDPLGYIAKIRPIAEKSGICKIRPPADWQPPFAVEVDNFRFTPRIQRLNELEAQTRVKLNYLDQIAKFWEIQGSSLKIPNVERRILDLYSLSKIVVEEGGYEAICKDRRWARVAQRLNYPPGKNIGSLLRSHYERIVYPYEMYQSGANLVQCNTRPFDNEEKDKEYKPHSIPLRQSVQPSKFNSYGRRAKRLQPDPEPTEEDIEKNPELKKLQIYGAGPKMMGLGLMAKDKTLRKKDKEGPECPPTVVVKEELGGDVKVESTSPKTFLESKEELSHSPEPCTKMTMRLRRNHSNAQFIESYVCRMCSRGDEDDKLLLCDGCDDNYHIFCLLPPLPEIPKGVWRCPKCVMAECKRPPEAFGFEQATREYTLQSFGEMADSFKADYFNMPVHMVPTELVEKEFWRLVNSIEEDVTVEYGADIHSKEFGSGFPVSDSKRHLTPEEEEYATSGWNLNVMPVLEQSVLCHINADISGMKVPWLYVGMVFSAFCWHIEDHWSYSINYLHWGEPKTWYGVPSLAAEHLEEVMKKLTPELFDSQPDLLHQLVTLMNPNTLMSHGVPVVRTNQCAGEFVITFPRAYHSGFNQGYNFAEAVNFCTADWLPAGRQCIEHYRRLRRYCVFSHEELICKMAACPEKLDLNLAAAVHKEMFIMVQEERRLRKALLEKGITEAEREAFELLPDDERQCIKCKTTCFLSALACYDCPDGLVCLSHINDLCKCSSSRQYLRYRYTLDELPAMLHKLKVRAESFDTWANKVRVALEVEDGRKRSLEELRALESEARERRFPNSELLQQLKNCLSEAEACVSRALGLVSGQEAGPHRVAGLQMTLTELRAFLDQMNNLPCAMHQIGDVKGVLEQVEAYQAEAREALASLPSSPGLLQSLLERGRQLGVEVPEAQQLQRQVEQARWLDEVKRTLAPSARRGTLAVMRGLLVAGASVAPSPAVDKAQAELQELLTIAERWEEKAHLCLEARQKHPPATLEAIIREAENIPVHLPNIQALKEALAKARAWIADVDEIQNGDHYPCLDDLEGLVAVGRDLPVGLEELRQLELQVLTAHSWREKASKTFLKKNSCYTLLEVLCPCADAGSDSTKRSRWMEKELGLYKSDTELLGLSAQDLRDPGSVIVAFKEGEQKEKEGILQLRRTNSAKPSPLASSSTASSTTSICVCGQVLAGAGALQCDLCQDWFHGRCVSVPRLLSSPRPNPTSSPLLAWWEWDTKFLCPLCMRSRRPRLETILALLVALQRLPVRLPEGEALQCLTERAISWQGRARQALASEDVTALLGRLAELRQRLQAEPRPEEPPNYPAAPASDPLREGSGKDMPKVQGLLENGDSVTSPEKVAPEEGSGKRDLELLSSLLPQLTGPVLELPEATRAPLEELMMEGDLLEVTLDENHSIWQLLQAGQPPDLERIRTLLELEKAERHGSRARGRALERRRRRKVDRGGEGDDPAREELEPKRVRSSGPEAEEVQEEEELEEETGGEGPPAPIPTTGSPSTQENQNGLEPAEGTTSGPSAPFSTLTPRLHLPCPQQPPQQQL
smiles,measurement,setting,value
"CC(=O)N1c2ccccc2[C@@](C#N)(c2ccccc2)[C@@H]1c1cncc(CCCCCCCN2CCCC2)c1 [(S,S)-6]",IC50,JARID1C (KDM5C),15.7 µM
same,inhibition at 10 µM,JMJD2C (KDM4C); read-out: KDM4C % Inhib. (10 uM),30.5%
same,IC50,JMJD2C (KDM4C); read-out: KDM4C pIC50 (converted),> 100 µM
same,inhibition at 100 µM,JMJD1A (KDM3A),35.4%
same,IC50,JMJD1A (KDM3A); read-out: KDM3A pIC50 (converted),> 100 µM
same,IC50,JARID1B (KDM5B),13.1 µM
